Test system: 996289-038-R-J1-PDC complex spheroid viability
Experiment: Anticancer human tumor 996289-038-R-J1-PDC patient-derived colon adenocarcinoma cell line growth inhibition [CLK]
Conditions: for IC50: curve of first compound; for viability, T/C: stronger effect = lower value
How it was run: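 Multi-cell-type spheroids combined patient-derived tumor cells with HUVEC endothelial cells and human mesenchymal stem cells. Paired agents were dosed in half-log steps down from about clinical Cmax, or from 10 microM where Cmax was unknown.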

[1] = second compound 0.0316 µM, first compound 0.0316 µM
[2] = second compound 0.0316 µM, first compound 0.1 µM
[3] = second compound 0.0316 µM, first compound 0.316 µM
[4] = second compound 0.0316 µM, first compound 1 µM
[5] = second compound 0.0316 µM, first compound 3.16 µM
[6] = second compound 0.0316 µM, first compound 10 µM
[7] = second compound 0.1 µM, first compound 0.0316 µM
[8] = second compound 0.1 µM, first compound 0.1 µM
[9] = second compound 0.1 µM, first compound 0.316 µM
[10] = second compound 0.1 µM, first compound 1 µM
[11] = second compound 0.1 µM, first compound 3.16 µM
[12] = second compound 0.1 µM, first compound 10 µM
[13] = second compound 0.316 µM, first compound 0.0316 µM
[14] = second compound 0.316 µM, first compound 0.1 µM
[15] = second compound 0.316 µM, first compound 0.316 µM
[16] = second compound 0.316 µM, first compound 1 µM
[17] = second compound 0.316 µM, first compound 3.16 µM
[18] = second compound 0.316 µM, first compound 10 µM
[19] = second compound 1 µM, first compound 0.0316 µM
[20] = second compound 1 µM, first compound 0.1 µM
[21] = second compound 1 µM, first compound 0.316 µM
[22] = second compound 1 µM, first compound 1 µM
[23] = second compound 1 µM, first compound 3.16 µM
[24] = second compound 1 µM, first compound 10 µM
[25] = second compound 3.16 µM, first compound 0.0316 µM
[26] = second compound 3.16 µM, first compound 0.1 µM
[27] = second compound 3.16 µM, first compound 0.316 µM
[28] = second compound 3.16 µM, first compound 1 µM
[29] = second compound 3.16 µM, first compound 3.16 µM
[30] = second compound 3.16 µM, first compound 10 µM
[31] = second compound 10 µM, first compound 0.0316 µM
[32] = second compound 10 µM, first compound 0.1 µM
[33] = second compound 10 µM, first compound 0.316 µM
[34] = second compound 10 µM, first compound 1 µM
[35] = second compound 10 µM, first compound 3.16 µM
[36] = second compound 10 µM, first compound 10 µM
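Also: spheroids exposed to the agents for 7 days before readout.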

`CC(=O)O[C@H]1C(=O)[C@@]2(C)[C@H]([C@H](OC(=O)c3ccccc3)[C@]3(O)C[C@H](OC(=O)[C@H](O)[C@@H](NC(=O)c4ccccc4)c4ccccc4)C(C)=C1C3(C)C)[C@]1(OC(C)=O)CO[C@@H]1C[C@@H]2O` + CN1CCN(c2cc(C(=O)Nc3cc4cc(-c5cnn(C)c5)ccc4cn3)ccn2)CC1 gave an IC50 (second compound 0.0316 µM) greater than 10000 nM, an IC50 (second compound 0.1 µM) of 947 nM and an IC50 (second compound 0.316 µM) of 50.7 nM. The IC50 (second compound 1 µM) was less than 31.6 nM, the IC50 (second compound 3.16 µM) was less than 31.6 nM and the IC50 (second compound 10 µM) was less than 31.6 nM. For the same molecule, the viability, T/C [1] was 94%, the viability, T/C [2] was 80.4% and the viability, T/C [3] was 64.1%. It also gave a viability, T/C [4] of 57.5%, a viability, T/C [5] of 54.8% and a viability, T/C [6] of 54.5%. The viability, T/C [7] was 83.2%, the viability, T/C [8] was 77.6% and the viability, T/C [9] was 58.6%. It also gave a viability, T/C [10] of 50%, a viability, T/C [11] of 48.1% and a viability, T/C [12] of 48.2%. It also gave a viability, T/C [13] of 52.1%, a viability, T/C [14] of 49.1% and a viability, T/C [15] of 39.1%. The viability, T/C [16] was 34.2%, the viability, T/C [17] was 36.9% and the viability, T/C [18] was 38.3%. The viability, T/C [19] was 2.95%, the viability, T/C [20] was 3.46% and the viability, T/C [21] was 2.81%. It also gave a viability, T/C [22] of 5.29%, a viability, T/C [23] of 3.96% and a viability, T/C [24] of 3.89%. The viability, T/C [25] was 2.65%, the viability, T/C [26] was 0.84% and the viability, T/C [27] was 1.67%. It also gave a viability, T/C [28] of 2.13%, a viability, T/C [29] of 1.35% and a viability, T/C [30] of 0.72%. The viability, T/C [31] was 1.84%, the viability, T/C [32] was 1.49% and the viability, T/C [33] was 0.61%. For the same molecule, the viability, T/C [34] was 0.57%, the viability, T/C [35] was 0.83% and the viability, T/C [36] was 2.14%.

In the case of `COc1cccc2c1C(=O)c1c(O)c3c(c(O)c1C2=O)CC(O)(C(=O)CO)CC3OC1CC(N)C(O)C(C)O1` (centres undefined) + CN1CCN(c2cc(C(=O)Nc3cc4cc(-c5cnn(C)c5)ccc4cn3)ccn2)CC1, the IC50 (second compound 0.0316 µM) is reported as 1400 nM, the IC50 (second compound 0.1 µM) is reported as 775 nM and the IC50 (second compound 0.316 µM) is reported as 218 nM. It also gave an IC50 (second compound 1 µM) of less than 31.6 nM, an IC50 (second compound 3.16 µM) of less than 31.6 nM and an IC50 (second compound 10 µM) of less than 31.6 nM. For the same molecule, the viability, T/C [1] was 89.6%, the viability, T/C [2] was 91.8% and the viability, T/C [3] was 71.9%. For the same molecule, the viability, T/C [4] was 52.5%, the viability, T/C [5] was 45.2% and the viability, T/C [6] was 33.8%. For the same molecule, the viability, T/C [7] was 89.3%, the viability, T/C [8] was 83.5% and the viability, T/C [9] was 60.2%. The viability, T/C [10] was 44.5%, the viability, T/C [11] was 40.6% and the viability, T/C [12] was 26.3%. It also gave a viability, T/C [13] of 67.8%, a viability, T/C [14] of 56.9% and a viability, T/C [15] of 42.1%. For the same molecule, the viability, T/C [16] was 38.6%, the viability, T/C [17] was 33.6% and the viability, T/C [18] was 16.1%. It also gave a viability, T/C [19] of 4.05%, a viability, T/C [20] of 4.33% and a viability, T/C [21] of 4.01%. It also gave a viability, T/C [22] of 3.89%, a viability, T/C [23] of 4.94% and a viability, T/C [24] of 7.17%. It also gave a viability, T/C [25] of 0.81%, a viability, T/C [26] of 1.53% and a viability, T/C [27] of 2.41%. The viability, T/C [28] was 2.9%, the viability, T/C [29] was 5.23% and the viability, T/C [30] was 5.47%. The viability, T/C [31] was 1.39%, the viability, T/C [32] was 0.35% and the viability, T/C [33] was 0.5%. For the same molecule, the viability, T/C [34] was 0.45%, the viability, T/C [35] was 0.53% and the viability, T/C [36] was 0.61%.

— PubChem BioAssay AID2060600 (Molecular Pharmacology Branch, DTP, NCI, 2025)
